Experimental data: patent publication US6737383B1, “Herbicidal oxadiazolidines” (priority 1999, dated 2004)

Experiments:
bermuda-grass = assay: Test D bermudagrass; assay type: in vivo, Cynodon dactylon; conditions: Rate 64 g/ha, Preemergence; 0 to 100 scale, 0 no injury, 100 complete control
Method in brief: (§1)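 Greenhouse pots, sandy loam, single species per pot. Preemergence tests: soil-surface application ≤1 day after planting. Compound formulated in non-phytotoxic solvent with surfactant. Visual rating 14–21 DAT, scale 0–100.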

itchgrass = assay: Test D itchgrass; assay type: in vivo, Rottboellia exaltata; conditions: Rate 64 g/ha, Preemergence; 0 to 100 scale, 0 no injury, 100 complete control
Method in brief: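 Scoring used a 0–100 visual injury scale, with 0 meaning no effect and 100 complete control, assessed 14–21 days after application alongside untreated pots. Preemergence treatments went onto sandy loam surfaces of separately potted seeds within a day of sowing.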

soybean = assay: Test B pre/postemergence soybean; assay type: in vivo, Glycine max
Method in brief: (§2)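 Response is a visual 0-to-10 score relative to untreated plants, where 0 means no effect and 10 means complete control, taken twelve to sixteen days after application. Treatments went onto soil at planting and onto foliage of 1- to 4-leaf plants, using a surfactant-containing non-phytotoxic solvent.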

crabgrass = assay: Test B pre/postemergence crabgrass; assay type: in vivo, Digitaria sanguinalis
Method in brief: as §2

wild oat [1] = assay: Test B pre/postemergence wild oat; assay type: in vivo, Avena fatua
Method in brief: as §2

wheat = assay: Test B pre/postemergence wheat; assay type: in vivo, Triticum aestivum
Method in brief: as §2

Johnson grass = assay: Test D Johnson grass; assay type: in vivo, Sorghum halepense; conditions: Rate 64 g/ha, Preemergence; 0 to 100 scale, 0 no injury, 100 complete control
Method in brief: as §1

Italian ryegrass = assay: Test E Italian ryegrass; assay type: in vivo, Lolium multiflorum; conditions: Preemergence
blackgrass = assay: Test E blackgrass; assay type: in vivo, Alopecurus myosuroides; conditions: Preemergence
winter wheat [2] = assay: Test E winter wheat; assay type: in vivo, Triticum aestivum; conditions: Preemergence
wild oat [3] = assay: Test E wild oat; assay type: in vivo, Avena fatua; conditions: Preemergence
green foxtail = assay: Test E green foxtail; assay type: in vivo, Setaria viridis; conditions: Preemergence
smallflower flatsedge = assay: Test B flood test smallflower flatsedge; assay type: in vivo, Cyperus difformis
Method in brief: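 Read-out is a visual response score from 0 (no effect) to 10 (complete control), assigned by comparison with untreated controls. Treatment was applied at the 2-leaf stage, and plants stayed in the greenhouse for twelve to sixteen days before scoring.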

winter barley = assay: Test E winter barley; assay type: in vivo, Hordeum vulgare; conditions: Preemergence
winter wheat [4] = assay: Test E winter wheat; assay type: in vivo, Triticum aestivum; conditions: Postemergence; for Plant response rating, Wheat (winter): 0 to 100 scale
Method in brief: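 Compound formulated with surfactant in a non-phytotoxic solvent (postemergence: young 1- to 4-leaf plants); held in greenhouse approx. 21–28 days; visual assessment against untreated plants.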

[5] = Postemergence, Rate 125 g/ha, scale of 0 to 10 where 0 is no effect and 10 is complete control
[6] = Preemergence, Rate 62 g/ha, scale 0 to 10 (0 no effect, 10 complete control)
[7] = Preemergence, Rate 125 g/ha, 0 is no effect, 10 is complete control
[8] = Preemergence, Rate 250 g/ha, scale 0 to 10, 0 is no effect, 10 is complete control
[9] = Preemergence, Rate 500 g/ha, scale 0 to 10 (0 no effect, 10 complete control)
[10] = Rate 62 g/ha, Postemergence, scale of 0 to 10 where 0 is no effect and 10 is complete control
[11] = Rate 250 g/ha, Postemergence, scale 0 to 10, 0 is no effect, 10 is complete control
[12] = Rate 500 g/ha, Postemergence, scale 0 to 10
[13] = Rate 31 g/ha, 0 to 100 scale, 0 no effect, 100 complete control
[14] = Rate 62 g/ha, 0 to 100 scale, 0 no effect, 100 complete control
[15] = Rate 125 g/ha, 0 to 100 scale (0 no effect, 100 complete control)
[16] = Preemergence, Rate 31 g/ha, visual rating, scale 0 to 10 (0 no effect, 10 complete control)
[17] = Preemergence, Rate 62 g/ha, scale of 0 to 10 where 0 is no effect and 10 is complete control
[18] = Preemergence, Rate 250 g/ha, scale of 0 to 10 where 0 is no effect and 10 is complete control
[19] = Preemergence, Rate 500 g/ha, scale of 0 to 10 where 0 is no effect and 10 is complete control
[20] = Rate 125 g/ha, Postemergence, scale 0 to 10
[21] = Rate 125 g/ha, Preemergence, scale of 0 to 10 where 0 is no effect and 10 is complete control
[22] = Rate 500 g/ha, Postemergence, scale 0 to 10, 0 no effect, 10 complete control

## CCCn1c(=O)on(C(=O)N(c2ccc(F)cc2F)C(C)C)c1=O [Compound 130]
bermuda-grass
  Plant response rating, Bermudagrass: 100
itchgrass
  Plant response rating, Itchgrass: 80
soybean; [5]
  Soybean plant response rating: 2
soybean; [6]
  Soybean plant response rating: 0
soybean; [7]
  Soybean plant response rating (0 to 10 scale): 0
soybean; [8]
  Soybean plant response rating: 3
soybean; [9]
  Soybean plant response rating: 4
soybean; [10]
  Soybean plant response rating: 1
soybean; [11]
  Plant response rating, Soybean: 3
soybean; [12]
  Soybean plant response rating: 5
crabgrass; [5]
  Crabgrass plant response rating: 9
crabgrass; [6]
  Crabgrass plant response rating: 6
crabgrass; [7]
  Crabgrass plant response rating (0 to 10 scale): 9
crabgrass; [8]
  Crabgrass plant response rating: 9
crabgrass; [9]
  Crabgrass plant response rating: 10
crabgrass; [10]
  Crabgrass plant response rating: 5
crabgrass; [11]
  Plant response rating, Crabgrass: 9
crabgrass; [12]
  Crabgrass plant response rating: 9
Wild oat [1]; [5]
  Wild oats plant response rating: 2
Wild oat [1]; [6]
  Wild oats plant response rating: 7
Wild oat [1]; [7]
  Wild oats plant response rating (0 to 10 scale): 8
Wild oat [1]; [8]
  Wild oats plant response rating: 10
Wild oat [1]; [9]
  Wild oats plant response rating: 10
Wild oat [1]; [10]
  Wild oats plant response rating: 0
Wild oat [1]; [11]
  Plant response rating, Wild oats: 5
Wild oat [1]; [12]
  Wild oats plant response rating: 8
wheat; [5]
  Wheat plant response rating: 1
wheat; [6]
  Wheat plant response rating: 2
wheat; [7]
  Wheat plant response rating (0 to 10 scale): 3
wheat; [9]
  Wheat plant response rating: 4
wheat; [10]
  Wheat plant response rating: 0
wheat; [11]
  Plant response rating, Wheat: 3
wheat; [12]
  Wheat plant response rating: 8
Johnson grass
  Plant response rating Johnsongrass: 65

## CC(C)N(C(=O)n1oc(=O)n(N(C)C)c1=O)c1ccccc1 [Compound 225]
Italian ryegrass; [13]
  Plant response rating, I. Ryegrass: 20
Italian ryegrass; [14]
  Plant response rating, I. Ryegrass: 30
Italian ryegrass; [15]
  Plant response rating, I. Ryegrass: 50
Italian ryegrass; Rate 250 g/ha
  I. Ryegrass plant response rating (0 to 100 scale): 90
blackgrass; [13]
  Plant response rating, Blackgrass: 30
blackgrass; [14]
  Plant response rating, Blackgrass: 50
blackgrass; [15]
  Plant response rating, Blackgrass: 60
blackgrass; Rate 250 g/ha
  Blackgrass plant response rating (0 to 100 scale): 80
Winter wheat [2]; [13]
  Plant response rating, Wheat (winter): 10
Winter wheat [2]; [14]
  Plant response rating, Wheat (winter): 30
Winter wheat [2]; [15]
  Plant response rating, Wheat (winter): 65
Winter wheat [2]; Rate 250 g/ha
  Wheat (winter) plant response rating (0 to 100 scale): 70
soybean; [16]
  Soybean plant response rating: 0
soybean; [17]
  Soybean plant response rating: 0
soybean; [18]
  Soybean plant response rating: 3
soybean; [19]
  Plant response rating, Soybean: 6
soybean; [10]
  Soybean plant response rating: 2
soybean; [20]
  Soybean plant response rating: 3
soybean; [21]
  Soybean plant response rating: 2
soybean; Rate 250 g/ha, Postemergence
  Plant response rating (0 to 10; 0 is no effect, 10 is complete control), Soybean: 5
soybean; [22]
  Soybean plant response rating: 4
crabgrass; [16]
  Crabgrass plant response rating: 2
crabgrass; [17]
  Crabgrass plant response rating: 9
crabgrass; [18]
  Crabgrass plant response rating: 10
crabgrass; [19]
  Plant response rating, Crabgrass: 10
crabgrass; Rate 31 g/ha, Postemergence, scale 0 to 10
  Crabgrass plant response rating: 0
crabgrass; [10]
  Crabgrass plant response rating: 5
crabgrass; [20]
  Crabgrass plant response rating: 8
crabgrass; [21]
  Crabgrass plant response rating: 10
crabgrass; [22]
  Crabgrass plant response rating: 8
Wild oat [3]; [13]
  Plant response rating, Wild oat: 30
Wild oat [3]; [14]
  Plant response rating, Wild oat: 40
Wild oat [3]; [15]
  Plant response rating, Wild oat: 50
Wild oat [3]; Rate 250 g/ha
  Wild oat plant response rating (0 to 100 scale): 60
Wild oat [1]; [16]
  Wild oats plant response rating: 0
Wild oat [1]; [17]
  Wild oats plant response rating: 4
Wild oat [1]; [18]
  Wild oats plant response rating: 10
Wild oat [1]; [19]
  Plant response rating, Wild oats: 10
Wild oat [1]; [10]
  Wild oats plant response rating: 0
Wild oat [1]; [20]
  Wild oats plant response rating: 2
Wild oat [1]; [21]
  Wild oats plant response rating: 7
Wild oat [1]; Rate 250 g/ha, Postemergence
  Plant response rating (0 to 10; 0 is no effect, 10 is complete control), Wild oats: 3
Wild oat [1]; [22]
  Wild oats plant response rating: 2
wheat; [16]
  Wheat plant response rating: 0
wheat; [17]
  Wheat plant response rating: 5
wheat; [18]
  Wheat plant response rating: 8
wheat; [19]
  Plant response rating, Wheat: 8
wheat; [10]
  Wheat plant response rating: 3
wheat; [20]
  Wheat plant response rating: 6
wheat; [21]
  Wheat plant response rating: 6
wheat; Rate 250 g/ha, Postemergence
  Plant response rating (0 to 10; 0 is no effect, 10 is complete control), Wheat: 7
wheat; [22]
  Wheat plant response rating: 8
Green foxtail; [13]
  Plant response rating, Green foxtail: 30
Green foxtail; [14]
  Plant response rating, Green foxtail: 60
Green foxtail; [15]
  Plant response rating, Green foxtail: 50
Green foxtail; Rate 250 g/ha
  Green foxtail plant response rating (0 to 100 scale): 60
Smallflower flatsedge; Rate 62 g/ha, headed Pre-emergence (flood test species), scale 0 to 10 (0 no effect, 10 complete control)
  S. Flatsedge plant response rating: 0
Smallflower flatsedge; Rate 125 g/ha, Pre-emergence, flood test species, scale 0 to 10 where 0 is no effect and 10 is complete control
  S. Flatsedge plant response rating: 0
Smallflower flatsedge; Rate 250 g/ha, Pre-emergence, flood-test species, scale 0 to 10, 0 is no effect, 10 is complete control
  S. Flatsedge plant response rating: 0
Smallflower flatsedge; Rate 500 g/ha, Pre-emergence, flood test species, scale 0 to 10 (0 no effect, 10 complete control)
  S. Flatsedge plant response rating: 0
Winter barley; [13]
  Plant response rating, Barley (winter): 0
Winter barley; [14]
  Plant response rating, Barley (winter): 50
Winter barley; [15]
  Plant response rating, Barley (winter): 50
Winter barley; Rate 250 g/ha
  Barley (winter) plant response rating (0 to 100 scale): 60
Winter wheat [4]; Rate 31 g/ha, 0 no effect, 100 complete control
  Plant response rating, Wheat (winter): 50
Winter wheat [4]; Rate 62 g/ha
  Plant response rating, Wheat (winter): 60
Winter wheat [4]; Rate 125 g/ha, 0 is no effect, 100 is complete control
  Plant response rating, Wheat (winter): 75
Winter wheat [4]; Rate 250 g/ha, 0 to 100 scale where 0 is no effect and 100 is complete control
  Wheat (winter) plant response rating: 70
